According to patent publication US12162888B2, “Carboxamides as ubiquitin-specific protease inhibitors” (Valo Early Discovery, Inc., priority 2018, dated 2024):

Molecular target: T1, USP25 (USP25-His6, Boston Biochem E-546) (Homo sapiens, UniProt Q9UHP3)
T1 construct: His6 (C); purchased Boston Biochem E-546
T1 sequence (Q9UHP3 1-1055): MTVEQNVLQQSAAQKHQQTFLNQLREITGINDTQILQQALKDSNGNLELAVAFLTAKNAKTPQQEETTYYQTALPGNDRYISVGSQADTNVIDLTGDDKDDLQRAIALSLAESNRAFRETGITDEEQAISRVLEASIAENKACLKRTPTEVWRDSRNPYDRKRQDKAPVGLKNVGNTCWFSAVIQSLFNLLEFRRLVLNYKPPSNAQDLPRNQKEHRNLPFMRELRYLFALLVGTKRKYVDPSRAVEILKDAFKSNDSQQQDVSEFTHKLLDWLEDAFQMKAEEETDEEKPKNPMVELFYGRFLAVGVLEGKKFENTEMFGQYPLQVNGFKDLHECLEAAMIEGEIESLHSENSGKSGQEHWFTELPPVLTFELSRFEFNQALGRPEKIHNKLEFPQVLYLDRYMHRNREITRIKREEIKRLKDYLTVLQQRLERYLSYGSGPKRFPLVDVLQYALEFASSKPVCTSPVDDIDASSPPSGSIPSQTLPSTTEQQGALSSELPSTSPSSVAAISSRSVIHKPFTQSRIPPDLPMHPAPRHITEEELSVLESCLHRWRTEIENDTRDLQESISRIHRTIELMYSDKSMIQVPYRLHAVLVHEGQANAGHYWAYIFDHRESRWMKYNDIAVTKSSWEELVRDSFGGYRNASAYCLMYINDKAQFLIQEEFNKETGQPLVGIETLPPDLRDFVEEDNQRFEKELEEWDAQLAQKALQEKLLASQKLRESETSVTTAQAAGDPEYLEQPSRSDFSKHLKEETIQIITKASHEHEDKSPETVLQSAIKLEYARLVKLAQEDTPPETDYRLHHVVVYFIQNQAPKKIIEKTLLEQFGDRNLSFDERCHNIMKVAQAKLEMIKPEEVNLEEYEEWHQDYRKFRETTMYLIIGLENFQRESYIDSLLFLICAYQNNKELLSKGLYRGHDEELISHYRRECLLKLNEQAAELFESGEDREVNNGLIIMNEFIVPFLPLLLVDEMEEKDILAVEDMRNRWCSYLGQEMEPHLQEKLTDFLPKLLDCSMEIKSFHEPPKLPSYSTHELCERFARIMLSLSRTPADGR
Test: Ubiquitin-Rhodamine 110 Assay for USP25 Activity, Example A-3
Type: biochemical
Conditions: Ubiquitin-Rhodamine 110 assay, Example A-3; read-out: USP25 A-3 IC50 range
Procedure, shortened: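 USP25-His6 ([…] final as stated) preincubated 30 min with compound (10-point, 25 μM to 1.3 nM), then Ub-Rh110 at 25 nM (<<Km) added in pH 8.0 Tris buffer with BME, BGG and Triton X-100. Reaction stopped after 45 min at room temperature with 10 mM citric acid; fluorescence read at 485/535 nm.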

| SMILES | IC50 [nM] |
| --- | --- |
| Cc1cnc2c(N)c(C(=O)N[C@@H]3CCc4c(C#N)c(N5CC6CCC(C5)N6)cc(F)c4C3)sc2n1 (single isomer, unassigned) [Example 14-20] | > 2000 |
| Cc1cnc2c(N)c(C(=O)N[C@H]3CCc4cc(N5C[C@H]6C[C@@H]5CN6)ccc4C3)sc2n1 (single isomer, unassigned) [Example 11-31] | 200 to 2000 |
| Cc1ccc2c(N)c(C(=O)N[C@H]3CCc4cc(N5CC6CNCC(C5)O6)cc(F)c4C3)sc2n1 (single isomer, unassigned) [Example 11-39] | > 2000 |
| CN[C@@H]1CN(c2ccc3c(n2)CC[C@H](NC(=O)c2sc4nc(C)ccc4c2N)C3)C[C@@H]1CF [Example 442, 3-amino-N-[(6S)-2-[(3S,4S)-3-(fluoromethyl)-4-(methylamino)pyrrolidin-1-yl]-5,6,7,8-tetrahydroquinolin-6-yl]-6-methylthieno[2,3-b]pyridine-2-carboxamide] | > 2000 |
| Cc1nc2sc(C(=O)N[C@@H]3CCc4c(C#N)c(N5CCNCC5)cc(F)c4C3)c(N)c2s1 (single isomer, unassigned) [Example 14-13] | > 2000 |
| Cc1cnc2c(N)c(C(=O)N[C@@H]3CCc4cc(N5CCNCC5)ccc4C3)sc2n1 (single isomer, unassigned) [Example 11-20] | > 2000 |
| CCn1ccc2cc(C(=O)N[C@H]3CCc4nc(N5C[C@H](COC)[C@H](N)C5)ccc4C3)cnc21 (single isomer, unassigned) [Example 401] | > 2000 |
| Cc1ccc2c(N)c(C(=O)N[C@H]3COc4cc(N5C[C@H]6CC[C@@H]5CN6)ncc4C3)sc2n1 [Example 76, N-((R)-7-((1R,4R)-2,5-diazabicyclo[2.2.2]octan-2-yl)-3,4-dihydro-2H-pyrano[3,2-c]pyridin-3-yl)-3-amino-6-methylthieno[2,3-b]pyridine-2-carboxamide] | 50 to 200 |

Same assay, conditions: biochemical IC50 range, Ubiquitin-Rhodamine 110 assay, Example A-3; read-out: USP25 A-3

| SMILES | IC50 [nM] |
| --- | --- |
| O=C(N[C@H]1COc2cc(N3CCNCC3)ccc2C1)c1ccc(NCc2cccc(Cl)c2Cl)nc1 [Example 699, 6-{[(2,3-dichlorophenyl)methyl]amino}-N-[(3R)-7-(piperazin-1-yl)-3,4-dihydro-2H-1-benzopyran-3-yl]pyridine-3-carboxamide] | 1 to 50 |
